This note sets out measurements from patent US20250195561A1, “A CATIONIC DENDRIMER FOR IMPROVING ANTIBIOTIC EFFICACY OF AN ANTIBIOTIC” (GAMA HEALTHCARE LTD, priority 2022, published 2025).

Type in all cases: cell-based
Test [1] relates to Pseudomonas aeruginosa strain PS3. Put plainly: 96-well broth dilution test (MIC) in presence and absence of dendrimer. The note with it: for MIC: MHB, 37° C., 24 hours; for Reduction (%) in MIC: with dendrimer (0.1%) versus antibiotic alone. On the procedure: (§1) Briefly, a standard suspension of the two Pseudomonas strains was prepared in Mueller Hinton Broth (MHB), then added to varying concentrations of antibiotic in a 96-well plate. Tests were performed either in the presence or absence of dendrimer (final concentration 0.1%). 96-well plates were incubated at 37° C. for 24 hours, with optical density (620 nm) of cultures monitored over this period using a Multiskan EX plate reader (Thermo Labsystems).
(Dilution methods test growth across graded concentrations, often in twofold steps.)

Test [2] has as its system Pseudomonas aeruginosa strain PA01. The test is described as above. The conditions noted are these: for MIC: MHB, 37° C., 24 hours; for Reduction (%) in MIC: with dendrimer (0.1%) versus antibiotic alone. On the procedure: as §1
The test system of test [3] is Pseudomonas aeruginosa strain PS3. Put plainly: Antibiotic disc diffusion assay (zone of inhibition). The conditions noted are these: antibiotic disc on Iso-Sensitest agar, 37° C., 20 hours, ±Stdev, n = 2. As to the method:
(§2) The antibiotic disc diffusion assay was performed as described previously to determine the antibiotic susceptibility of the two strains. Briefly, a standardised suspension of the two Pseudomonas strains was used to inoculate Iso-Sensitest agar (ISA) plates to yield semi-confluent growth of each organism. Antibiotic discs containing Gentamicin and Imipenem were applied to the inoculated plates, then incubated at 37° C. for 20 hours. Zones of inhibition were measured to the nearest millimetre.
For orientation: Agar diffusion results depend on both activity and mobility in agar.

Test [4] relates to Pseudomonas aeruginosa strain PA01. The description is as above. The conditions noted are these: antibiotic disc on Iso-Sensitest agar, 37° C., 20 hours, ±Stdev, n = 2. As to the method:
as §2

[5] abbreviates: presence of dendrimer (final concentration 0.1%).

As a reminder, the MIC is the smallest concentration in the dilution series that meets the test's criterion for growth inhibition.

≈ marks a conversion by molar mass, not a printed value. Read-outs that look alike come from different tables or passages of the source.

For the compound Gentamicin, the MIC was found to be 1.45 µg/mL in test [1] (absence of dendrimer), 0.32 µg/mL in test [1] (setting [5]), 4.64 µg/mL in test [2] (absence of dendrimer) and 1.34 µg/mL in test [2] (setting [5]). In addition, the “Reduction (%) in MIC” value in test [1] is 78%; in test [2], 71%. In addition, the Zone of inhibition in test [3] is given as 46 (±0.7) Mm; in test [4], 38 (±1.4) Mm.
Consider `C[C@@H](O)[C@H]1C(=O)N2C(C(=O)O)=C(SCCN=CN)C[C@H]12` [Imipenem], for which the MIC in test [1] (Pseudomonas aeruginosa, PS3, 24 h, absence of dendrimer, read-out: MIC) is 51.1 µg/mL (≈ 171 µM); in test [1] (Pseudomonas aeruginosa, PS3, 24 h, presence of dendrimer (final concentration 0.1%), read-out: MIC), less than 0.011 µg/mL; in test [2] (Pseudomonas aeruginosa, PA01, 24 h, absence of dendrimer, read-out: MIC), 28.3 µg/mL (≈ 94.6 µM); in test [2] (Pseudomonas aeruginosa, PA01, 24 h, presence of dendrimer (final concentration 0.1%), read-out: MIC), less than 0.011 µg/mL. The “Reduction (%) in MIC” value in test [1] and in test [2] was greater than 99.9% throughout. Further, the Zone of inhibition in test [3] was 35 (±0.0) Mm; in test [4], 12 (±2.8) Mm.
